Data published in US20070128217A1 (priority 2003, published 2007).

Columns and labels:
[1] = tested on: antibodies in sera from SARS patients (sera 1a, 1b, 2, 6, 37, 62, London, SARS-yellow, SARS-green); format: binding, human; design: Binding of serum 6 to linear peptides of protein X1 of SARS-CoV Urbani / Binding of serum 37 to linear peptides of protein X1 of SARS-CoV Urbani / Binding of serum 6 to looped/cyclic peptide (PEPSCAN-ELISA) / Binding of serum 37 to looped/cyclic peptide (PEPSCAN-ELISA) / Binding of serum 37 to looped/cyclic peptides of protein X1 of SARS-CoV Urbani / Binding of serum 6 to linear peptides of protein X2 / Binding of serum 37 to linear peptides of protein X2 / Binding of serum 37 to looped/cyclic peptides of protein X2 of SARS-CoV Urbani / Binding of serum 6 to linear peptides of protein M of SARS-CoV Urbani / Binding of serum 37 to linear peptides of protein M of SARS-CoV Urbani / Binding of serum 6 to looped/cyclic peptides of protein M of SARS-CoV Urbani / Binding of serum 37 to looped/cyclic peptides of protein M of SARS-CoV Urbani / Binding of serum 6 to linear peptides of protein X3 of SARS-CoV Urbani / Binding of serum 37 to linear peptides of protein X3 of SARS-CoV Urbani / Binding of serum 37 to looped/cyclic peptides of protein X3 of SARS-CoV Urbani / Binding of serum 6 to linear peptides of protein X4 of SARS-CoV Urbani / Binding of serum 37 to linear peptides of protein X4 of SARS-CoV Urbani / Binding of serum 37 to looped/cyclic peptides of protein X4 of SARS-CoV Urbani / Binding of serum 6 to linear peptides of protein X5 of SARS-CoV Urbani / Binding of serum 37 to linear peptides of protein X5 of SARS-CoV Urbani / Binding of serum 37 to looped/cyclic peptides of protein X5 of SARS-CoV Urbani / Binding of serum 6 to linear peptides of protein N of SARS-CoV Urbani / Binding of serum 37 to linear peptides of protein N of SARS-CoV Urbani / Binding of serum 6 to linear peptide (PEPSCAN-ELISA) / Binding of serum 1a to looped/cyclic peptides of protein N of SARS-CoV Urbani / Binding of serum 1b to looped/cyclic peptides of protein N of SARS-CoV Urbani / Binding of serum 2 to looped/cyclic peptides of protein N of SARS-CoV Urbani / Binding of serum 6 to looped/cyclic peptides of protein N of SARS-CoV Urbani / Binding of serum 37 to looped/cyclic peptides of protein N of SARS-CoV Urbani / Binding of serum 62 to looped/cyclic peptides of protein N of SARS-CoV Urbani / Binding of serum London to looped/cyclic peptides of protein N of SARS-CoV Urbani / Binding of serum SARS-green to looped/cyclic peptides of protein N of SARS-CoV Urbani: unit not given here
[2] = tested on: recombinant human anti-SARS-CoV antibody 03-018; format: binding; design: Binding of antibody 03-018 to linear peptides of the N protein of SARS-CoV Urbani / Binding of antibody 03-018 to looped/cyclic peptides of the N protein of SARS-CoV Urbani: unit not given here
[3] = tested on: control sera (pooled serum of ten healthy LUMC hospital workers; commercial negative donor pooled serum from the Dutch bloodbank); format: binding, human; design: Binding of Control serum LUMC to linear peptides / Binding of Control serum Blood-bank to linear peptides / Binding of Control serum LUMC to looped peptides / Binding of Control Serum Blood-Bank to Looped peptides / Binding of Control serum LUMC to linear peptides of the protein M of SARS-CoV Urbani / Binding of Control serum Blood-bank to linear peptides of the protein M of SARS-CoV Urbani / Binding of Control serum LUMC to looped peptides of the protein M of SARS-CoV Urbani / Binding of Control Serum Blood-Bank to Looped peptides of the protein M of SARS-CoV Urbani: unit not given here
[4] = tested on: rabbit serum obtained by immunizing a rabbit with the SARS-CoV strain Frankfurt 1; format: binding; design: Binding of a rabbit serum to linear peptides / Binding of a rabbit serum to looped peptides / Rabbit serum linear peptides / Rabbit serum looped peptides / Binding of a rabbit serum to linear peptides of protein N of SARS-CoV Urbani (Rabbit serum linear peptides) / Binding of a rabbit serum to looped/cyclic peptides of protein N of SARS-CoV Urbani (Rabbit serum looped peptides): unit not given here

Sequence	Binding of serum 1a to looped/cyclic peptides of protein N of SARS-CoV Urbani [1]	Binding of serum 1b to looped/cyclic peptides of protein N of SARS-CoV Urbani [1]	Binding of serum 2 to looped/cyclic peptides of protein N of SARS-CoV Urbani [1]	Binding of serum 6 to looped/cyclic peptides of protein N of SARS-CoV Urbani [1]	Binding of serum 37 to looped/cyclic peptides of protein N of SARS-CoV Urbani [1]	Binding of serum 62 to looped/cyclic peptides of protein N of SARS-CoV Urbani [1]	Binding of serum London to looped/cyclic peptides of protein N of SARS-CoV Urbani [1]	Binding of serum SARS-green to looped/cyclic peptides of protein N of SARS-CoV Urbani [1]	Binding of serum SARS-yellow to looped/cyclic peptides of protein N of SARS-CoV Urbani [1]	Binding of antibody 03-018 to linear peptides of the N protein of SARS-CoV Urbani [2]	Binding of antibody 03-018 to looped/cyclic peptides of the N protein of SARS-CoV Urbani [2]	Binding of Control Serum Blood-Bank to Looped peptides [3]	Binding of Control serum Blood-bank to linear peptides [3]	Binding of Control serum LUMC to linear peptides [3]	Binding of Control serum LUMC to looped peptides [3]	Binding of a rabbit serum to linear peptides of protein N of SARS-CoV Urbani (Rabbit serum linear peptides) [4]	Binding of a rabbit serum to looped/cyclic peptides of protein N of SARS-CoV Urbani (Rabbit serum looped peptides) [4]	also measured
GGSQASSRSSSRSRG	0.3	0.2	0.4	0.4	0.5	0.4	0.4	0.0	0.3	0.1	0.2	0.6	0.7	0.8	0.6	0.2	0.5	Binding of serum 1a to linear peptide (PEPSCAN-ELISA) [1]: 0.3; Binding of serum 1b to linear peptide (PEPSCAN-ELISA) [1]: 0.1; Binding of serum 2 to linear peptide (PEPSCAN-ELISA) [1]: 0.3; Binding of serum 6 to linear peptide (PEPSCAN-ELISA) [1]: 0.4; Binding of serum 37 to linear peptide (PEPSCAN-ELISA) [1]: 0.7; Binding of serum 62 to linear peptide (PEPSCAN-ELISA) [1]: 0.7; Binding of serum London to linear peptide (PEPSCAN-ELISA) [1]: 0.5; Binding of serum SARS-green to linear peptide (PEPSCAN-ELISA) [1]: 0.7; Binding of serum SARS-yellow to linear peptide (PEPSCAN-ELISA) [1]: 0.9
GIVWVATEGALNTPK	0.3	0.1	0.4	0.2	0.5	0.4	0.4	0.3	0.3	0.1	0.2	0.5	1.0	1.0	0.5	0.2	0.5	Binding of serum 1a to linear peptides of protein N of SARS-CoV Urbani [1]: 0.3; Binding of serum 1b to linear peptides of protein N of SARS-CoV Urbani [1]: 0.2; Binding of serum 2 to linear peptides of protein N of SARS-CoV Urbani [1]: 0.5; Binding of serum 6 to linear peptides of protein N of SARS-CoV Urbani [1]: 0.3; Binding of serum 37 to linear peptides of protein N of SARS-CoV Urbani [1]: 0.9; Binding of serum 62 to linear peptides of protein N of SARS-CoV Urbani [1]: 0.9; Binding of serum London to linear peptides of protein N of SARS-CoV Urbani [1]: 0.6; Binding of serum SARS-green to linear peptides of protein N of SARS-CoV Urbani [1]: 1.0; Binding of serum SARS-yellow to linear peptides of protein N of SARS-CoV Urbani [1]: 0.8
